From US20260176284A1, “Compounds with Anti-KRAS Mutated Tumor Activity” (Trasveda Ltd., priority 2022, published 2026)
pIC50: −log10 of the molar value. Read-outs that look alike come from different tables or passages of the source.

Tests used:
[1] = tested on: KP-4 cells; experiment: 3D proliferation inhibition of KRAS G12D mutated tumor cells, KP-4; type: cell-based; settings: CTG, 120 hours
Text: (§1) This experiment evaluated and verified the proliferation inhibitory activity of the representative compounds of the present invention against the following five strains of KRAS-related tumor cells.
(§2) The following materials, reagents and instruments were used in this experiment: Five strains of cells were all from Nanjing Kebai Biotechnology Co., Ltd. (GP2D, CBP60010; HPAC, CBP60539; AsPC-1, CBP60546; KP-4, CBP60541; Panc 04.03, CBP60683); DMEM (Gibco, 11965092); RPMI-1640 (Gibco, SH30809.01); HPAC complete medium (Cobioer, CBP60539M); Fetal bovine serum FBS (Gibco, 10091-148); Insulin (Gibco, 41400045); Methylcellulose (methylcellulose, Sigma, 9004-67-5); Phosphate-buffered saline DPBS (Comning, 21-031-CVC); CellTiter-Glo® Luminescent Cell Viability Assay (Promega, Cat #G7573); 96-well clear flat-bottom black-wall plate (Corning, 3603); EnVision multilabel plate reader (PerkinElmer #2105); CO2 incubator (Thermo Scientific, Model 3 71 Series).
(§3) A sterilized 1% methylcellulose 3D culture medium was prepared in advance. The cells in the logarithmic growth phase were harvested, and a Countstar automatic cell counter based on the principle of the classic trypan blue staining method was used for cell counting and detecting cell viability to ensure that the cell viability was above 90%. The cell concentrations of GP2D, HPAC, AsPC-1, KP-f4, and Panc 04.03 were adjusted so that the final concentration of methylcellulose was 0.65%, and the mixture was allowed to stand after being well-mixed. After there were no visible air bubbles in the cell suspension, 80 μL of the cell suspension was added to each well of a 96-well plate, with a total of 1000-2000 cells. The cells in the 96-well plate were cultured overnight at 37° C., 5% CO2, and 95% humidity.
(§4) Drug Preparation for IC50 Determination: First, a 10 mM DMSO stock solution of each compound was prepared. For the first dilution, using DMSO as the solvent, each compound was first diluted to 5 mM and then serially diluted 3-fold to obtain 9 concentrations, preparing DMSO solutions of each compound at different concentrations. For the second dilution, a 5-fold diluted solution of each compound was prepared by a 1:100 dilution, using the complete medium as the solvent. […]
(§5) The cells in the 96-well plate with the added drugs were further cultured at 37° C. and 5% CO2 for 120 hours, and then a CTG analysis was performed. […] The cell plate was placed at room temperature for 20 minutes to stabilize the luminescence signal. The luminescence value was read, and the data were collected.
(§6) The data were analyzed using GraphPad Prism 9.0 software. Non-linear S-curve regression was used to fit the data to obtain the dose-response curve, and the IC50 value (nM) was calculated accordingly. […]

[2] = tested on: Panc 04.03 cells; experiment: 3D proliferation inhibition of KRAS G12D mutated tumor cells, Panc 04.03; type: cell-based; settings: CTG, 120 hours
Text: as §1, §2, §3, §4, §5, §6

[3] = tested on: KRAS-G12D mutated human colon carcinoma cells GP2d; experiment: Antitumor effect, subcutaneous xenograft of KRAS-G12D mutated human colon carcinoma cells GP2d; type: in vivo; settings: BALB/c nude mice, 10 mg/kg, gavage, twice a day
Experimental: GP2d cells were purchased from Nanjing Kebai Biotechnology Co., Ltd. BALB/c nude mice, female, were purchased from Jiangsu GemPharmatech LLC. GP2d cells were cultured in culture medium containing DMEM and 10% FBS. The cells in the logarithmic growth phase were collected and resuspended in PBS to an appropriate concentration for subcutaneous tumor inoculation in mice. The experimental mice were subcutaneously inoculated on the right posterior side of the back. The inoculation dose of GP2d cells was 1×10^7 cells per mouse, and the cells were resuspended in a 1:1 mixture of PBS and Matrigel (the inoculation volume was 0.1 mL). When the average tumor volume grew to 150 mm^3, the mice were randomly grouped for administration according to the tumor size and body weight. Administration was started immediately after grouping, and the day of administration was regarded as day 0. The administration was carried out twice a day by gavage, at a dose of 10 mg/kg or a solvent control (0.5% Tween 80+99.5% of (0.5% MC (400 cp))). During the experiment, the body weight of the mice and the size of the tumors were measured twice a week.
The formula for calculating the tumor size: Tumor volume (mm^3)=0.5×(long diameter of tumor×(short diameter of tumor)^2).
Relative tumor inhibition rate TGI (%): TGI %=[1−(average tumor volume at the end of administration of the treatment group−average tumor volume at the beginning of administration of the treatment group)/(average tumor volume at the end of administration of the vehicle control group −average tumor volume at the beginning of administration of the vehicle control group)]×100%.

[4] = tested on: GP2D cells; experiment: 3D proliferation inhibition of KRAS G12D mutated tumor cells, GP2D; type: cell-based, human; settings: 3D methylcellulose culture, CTG, 120 hours
Text: as §1, §2, §3, §4, §5, §6

[5] = tested on: AsPC-1 cells; experiment: 3D proliferation inhibition of KRAS G12D mutated tumor cells, AsPC-1; type: cell-based; settings: Homo sapiens, ASPC1, 3D methylcellulose culture, CTG, 120 hours
Text: as §1, §2
as §3, with “After there were no visible air bubbles in the cell suspension, 80 μL of the cell suspension was added to each well of a 96-well plate, with a total of 1000-2000 cells. The cells in the 96-well plate were cultured overnight at 37° C., 5% CO2, and 95% humidity.” left out
as §5, §6

[6] = tested on: HPAC cells; experiment: 3D proliferation inhibition of KRAS G12D mutated tumor cells, HPAC; type: cell-based, human; settings: 3D methylcellulose culture, CTG, 120 hours
Text: as §1, §2, §3, §4, §5, §6

[7] = tested on: KRAS G12D mutated AGS human gastric adenocarcinoma cells; experiment: Proliferation inhibition of KRAS G12D mutant AGS cells, another experiment with similar protocol (includes MRTX1133); type: cell-based
Experimental: In another experiment, using a protocol similar to the one described above, the inhibitory activity of some representative compounds of the present invention against KRAS G12D mutated AGS human gastric adenocarcinoma cells was determined.
The synthesis of compound MRTX1133 was performed according to the method described in J. Med. Chem. 2022, 65, 4, 3123-3133.

[8] = Mouse pharmacokinetics (IV and PO); type: in vivo; settings: 10 mg/kg, male CD-1 mice, PO (gavage), 1 mg/mL at 10 mL/kg, plasma
Experimental: The pharmacokinetic properties of the compounds of the present invention were evaluated through a mouse pharmacokinetic experiment.
Male CD-1 mice, aged 6-8 weeks old, were purchased from Zhejiang Vital River Laboratory Animal Co., Ltd.
IV administration group: The compound was formulated into a sodium acetate buffer solution (10 mM sodium acetate solution, adjusted to pH 4.0 with acetic acid) containing 20% Captisol (sulfobutyl β-cyclodextrin) so that the final concentration of each compound was 0.6 mg/mL. The drug formulation was injected into the tail vein of CD-1 mice at an injection volume of 5 mL/kg. After administration, blood samples were collected from the submandibular vein or by other appropriate methods at 5 min, 15 min, 30 min, 1 h, 2 h, 4 h, 6 h, 8 h, and 24 h. The blood samples were centrifuged at a low temperature for 6 minutes, and the plasma was collected and stored at −80° C. for testing. The PO administration group formulated the compound into a solvent of 0.5% Tween 80+99.5% (0.5% MC (400 cp)) or 5% DMSO+95% (0.5% MC (400 cp)) so that the final concentration of each compound was 1 mg/mL. The drug formulation was administered to CD-1 mice by gavage at a volume of 10 mL/kg. After administration, blood samples were collected from the submandibular vein or by other appropriate methods at 15 min, 30 min, 1 h, 2 h, 4 h, 6 h, 8 h, and 24 h. The blood samples were centrifuged at a low temperature for 6 minutes, and the plasma was collected and stored at −80° C. for testing.
10 μL of the plasma sample was taken, and 200 μL of methanol containing an internal standard was added as a precipitating agent to precipitate plasma proteins and extract the compounds to be tested in the plasma. After centrifugation at a low temperature, 10 μL of the supernatant was injected, and the drug blood concentration was analyzed by LC-MS/MS. The pharmacokinetic parameters were calculated using Winnonlin based on the drug concentration data at different time points.

[9] = tested on: human pancreatic cancer cells HPAC (carrying KRas G12D mutant protein); experiment: In vivo pharmacodynamics, subcutaneous xenograft of human pancreatic cancer cells HPAC; settings: NOD/SCID mice, 50 mpk, PO
Experimental: The following materials were used in this experiment: NOD/SCID mice, 6-8 weeks old, female, Jiangsu Ji Cai Yao Kang Biotechnology Co., Ltd.; HPAC cells (carrying KRas G12D mutant protein, ATCC); Captisol (Wuhan Fengyao Tonghui Chemical Products Co., Ltd., Cas #182410-00-0); Sodium acetate (aladdin); MC (sigma, 9004-67-5).
The experiment was carried out as follows: Female NOD/SCID mice aged 6-8 weeks were subcutaneously inoculated with 1-10^7 HPAC cells on the right posterior side of the back, with an inoculation volume of 0.1 mL. When the tumors grew to an average volume of 150 mm^3, the mice were randomly grouped for administration according to the tumor size and body weight. The day of administration was regarded as day 0. The administration was carried out once a day. The test compound was administered by tail vein injection or gavage, with 5 mice in each group at a dose of 10 mg/kg. The control group was administered with an equal volume of the solvent control by tail vein injection or gavage.
During the experiment, the tumor volume and body weight were measured twice a week. The formula for calculating the tumor volume was: Tumor volume (mm^3)=0.5×(tumor major axis×tumor minor axis^2). The average tumor inhibition rate TGI %=[(average tumor volume of the control group−average initial tumor volume of the control group)−(average tumor volume of the administration group−average initial tumor volume of the administration group)]/(average tumor volume of the control group−average initial tumor volume of the control group).

[10] = Homo sapiens, KP-4, 3D methylcellulose culture
[11] = Homo sapiens, Panc 04.03, 3D methylcellulose culture

[2H]C([2H])([2H])N1CC[C@H](C(F)F)[C@](C)(C([2H])([2H])Oc2nc(N3CC4CCC(C3)N4)c3cc(C(F)(F)F)c(-c4cccc5sc(N)c(C#N)c45)c(F)c3n2)C1 (single isomer, unassigned) [Example 321-1]
pIC50 [1, 10]: 8.32
pIC50 [2, 11]: 8.87
Tumor volume (mm3) (Day 21) [3]: 70 mm3
TGI (%) ([3]; Day 21): 109%
pIC50 ([4]; Homo sapiens, GP2d): 9.37
pIC50 [5]: 8.86
pIC50 ([6]; Homo sapiens, HPAC): 8.27

CN1CC/C(=C\F)[C@](C)(COc2nc(N3C[C@H]4CC[C@@H](C3)N4)c3cc(Cl)c(-c4c(F)ccc5sc(N)c(C#N)c45)c(F)c3n2)C1 (single isomer, unassigned) [Example 324-1]
pIC50 ([1]; 3D methylcellulose culture): 8.32
pIC50 ([2]; 3D methylcellulose culture): 8.87
pIC50 [4]: 9.41
pIC50 [7]: 8.40
pIC50 [6]: 8.39

C#Cc1c(F)ccc2cc(O)cc(-c3ncc4c(N5C[C@H]6CC[C@@H](C5)N6)nc(OC[C@]5(C)CN(C)CC/C5=C\F)nc4c3F)c12 [Example 103, 4-(4-((1R,5S)-3,8-diazabicyclo[3.2.1]octan-3-yl)-8-fluoro-2-(((S,E)-4-(fluoromethylene)-1,3-dimethylpiperidin-3-yl)methoxy)pyrido[4,3-d]pyrimidin-7-yl)-5-ethynyl-6-fluoronaphthalen-2-ol]
AUC(0-inf) [8]: 704 ng·h/mL
AUC(0-t) [8]: 653 ng·h/mL
half-life [8]: 489 min
Tumor volume (mm3) (Day 20) ([9]; BID × 21): 77 mm3
TGI (%) ([9]; BID × 21, Day 20): 112%
pIC50 [1, 10]: 8.16
pIC50 [2, 11]: 8.67
pIC50 ([4]; Homo sapiens, GP2d): 9.38
pIC50 [5]: 8.68
pIC50 ([7]; Homo sapiens): 8.40
pIC50 ([6]; Homo sapiens, HPAC): 8.84

C#Cc1c(F)ccc2cc(O)cc(-c3ncc4c(N5CC6CCC(C5)N6)nc(OC[C@@]56CCCN5C[C@H](F)C6)nc4c3F)c12 [MRTX1133, reference compound]
pIC50 [1, 10]: 7.37
pIC50 [2, 11]: 7.69
pIC50 ([4]; Homo sapiens, GP2d): 8.52
pIC50 [5]: 7.74
pIC50 ([7]; Homo sapiens): 7.55
pIC50 ([6]; Homo sapiens, HPAC): 8.09
